From ChEMBL document CHEMBL1156536, “Thiocarbamates as non-nucleoside HIV-1 reverse transcriptase inhibitors. Part 2: Parallel synthesis, molecular modelling and structure-activity relationship studies on analogues of O-(2-phenylethyl)-N-phenylthiocarbamate” (Bioorg Med Chem, 2008)
Calls of active or inactive are those of the source. The calls are words filed in the database; no cut-off is given here.

Legend:
[1] = tested on: Human immunodeficiency virus 1; assay: Antiviral activity against HIV1 in human MT4 cells assessed as inhibition of virus-induced cytopathogenicity by MTT assay; assay type: functional, organism-based; details: Human immunodeficiency virus 1, MT4
[2] = Selectivity index, ratio of CC50 for human MT4 cells to EC50 for HIV1; assay type: toxicity, cell-based; details: read-out: Ratio CC50/EC50
[3] = Cytotoxicity against mock-infected human MT4 cells by MTT assay; assay type: cell-based
[4] = tested on: Human immunodeficiency virus 1; assay: Antiviral activity against HIV1 with reverse transcriptase K103N/Y181C mutation in human MT4 cells assessed as inhibition of virus-induced cytopathogenicity by MTT assay; assay type: functional, organism-based; details: for EC50: Human immunodeficiency virus 1, MT4
[5] = tested on: Human immunodeficiency virus 1; assay: Antiviral activity against HIV1 with reverse transcriptase Y181C mutation in human MT4 cells assessed as inhibition of virus-induced cytopathogenicity by MTT assay; assay type: functional, organism-based; details: Human immunodeficiency virus 1, MT4

Structure (SMILES) | EC50 [1] [µM] | selectivity ratio [2] | CC50 [3] [µM] | Activity [4] | EC50 [5] [µM] | EC50 [4] [µM]
CC(OC(=S)Nc1ccc(Cl)cc1)c1ccc2ccccc2c1 (racemic) | 26 | > 3.8 | > 100 |  |  | 
COc1cccc(CCOC(=S)Nc2ccc([N+](=O)[O-])cc2)c1 | 0.2 | > 500 | > 100 | inactive | 8.3 | 
S=C(Nc1ccc(Cl)cc1)OCCOc1ccccc1 | 2.9 | 12 | 34 |  |  | 
O=[N+]([O-])c1ccc(NC(=S)OCCc2ccccc2)cc1 |  |  | > 100 |  |  | 
CC(COC(=S)Nc1ccc(Cl)cc1)c1ccccc1 (racemic) | 0.2 | 150 | 30 | inactive | 12 | 
S=C(Nc1ccccc1)OCc1cccs1 | > 38 | < 1 | 38 |  |  | 
COc1ccccc1CCOC(=S)Nc1ccc([N+](=O)[O-])cc1 | 0.1 | > 1000 | > 100 |  |  | 
CC(OC(=S)Nc1ccc(Cl)cc1)c1ccc(-c2ccccc2)cc1 (racemic) | 57 | > 1.8 | > 100 |  |  | 
O=[N+]([O-])c1ccc(NC(=S)OCCc2ccc(Br)cc2)cc1 | 7.9 | > 13 | > 100 |  |  | 
CC(COc1ccccc1)OC(=S)Nc1ccc(F)cc1 (racemic) | 11 | > 9 | > 100 |  |  | 
CC(COc1ccccc1)OC(=S)Nc1ccc(Cl)cc1 (racemic) | 1.6 | > 63 | > 100 |  |  | 
Cc1ccc(NC(=S)OCCOc2ccccc2)cc1 | 10 | 7.4 | 74 |  |  | 
COc1ccccc1CCOC(=S)Nc1ccc(Cl)cc1 | 0.07 | 614 | 43 | inactive | 8.9 | 
Cc1ccc(CCOC(=S)Nc2ccc([N+](=O)[O-])cc2)cc1 | 0.3 | > 333 | > 100 |  | 8.6 | 92
CC(COc1ccccc1)OC(=S)Nc1ccc([N+](=O)[O-])cc1 (racemic) | 2.6 | > 38 | > 100 |  |  | 
CC(Cc1ccccc1)OC(=S)Nc1ccc([N+](=O)[O-])cc1 (racemic) | 1.3 | 30 | 39 |  |  | 
O=[N+]([O-])c1ccc(NC(=S)OCCc2ccccc2O)cc1 | 10 | 3.6 | 36 |  |  | 
COc1cccc(CCOC(=S)Nc2ccc(Cl)c(Cl)c2)c1 | 1 | 44 | 44 |  |  | 
COc1ccc(NC(=S)OCCc2ccccc2)cc1 |  |  | 36 |  |  | 
CC(OC(=S)Nc1ccccc1)c1ccc(Cl)cc1 (racemic) | 5.3 | > 19 | > 100 |  |  | 

Structure (SMILES) | EC50 [1] [µM] | selectivity ratio [2] | CC50 [3] [µM] | Activity [4] | EC50 [5] [µM] | EC50 [4] [µM]
COc1ccc(CCOC(=S)Nc2ccc([N+](=O)[O-])cc2)cc1 | 1.4 | > 71 | > 100 |  |  | 
O=[N+]([O-])c1ccc(NC(=S)OCCc2cccc(Cl)c2)cc1 | 1.5 | > 67 | > 100 |  |  | 
Cc1ccc(NC(=S)OC(C)COc2ccccc2)cc1Cl (racemic) | 4 | > 25 | > 100 |  |  | 
COc1cccc(CCOC(=S)Nc2ccc(Cl)cc2)c1 | 0.08 | 1180 | 94 |  | 12 | 86
CCC(OC(=S)Nc1ccccc1)c1ccccc1 (racemic) | > 100 |  | > 100 |  |  | 
COc1ccccc1CCOC(=S)Nc1ccc(Cl)c([N+](=O)[O-])c1 | 0.9 | 49 | 44 |  |  | 
Oc1ccccc1OCCOC(=S)Nc1ccccc1 | 19 | > 5.2 | > 100 |  |  | 
O=[N+]([O-])c1ccc(NC(=S)OCCc2ccc(O)cc2)cc1 | > 41 | < 1 | 41 |  |  | 
S=C(Nc1ccccc1)OCCc1ccccc1 |  |  | 100 |  |  | 
CC(Cc1ccccc1)OC(=S)Nc1ccccc1 (racemic) | 9 | > 11 | > 100 |  |  | 
Cc1ccc(NC(=S)OCCc2ccccc2)cc1 |  |  | > 100 |  |  | 
S=C(Nc1ccccc1)OCC(c1ccccc1)c1ccccc1 | > 100 |  | > 100 |  |  | 
O=C1Nc2ccc(Cl)cc2C(C#CC2CC2)(C(F)(F)F)O1 (single isomer, unassigned) [EFAVIRENZ] |  |  |  |  |  | 0.04
O=[N+]([O-])c1ccc(NC(=S)OCCOc2ccccc2)cc1 | 8.5 | > 12 | > 100 |  |  | 
S=C(Nc1ccc(Cl)cc1)OCCc1ccccc1 |  |  | > 100 |  |  | 
COc1cccc(CCOC(=S)Nc2ccc(Cl)c([N+](=O)[O-])c2)c1 | 2 | 22 | 43 |  |  | 
COc1ccccc1CCOC(=S)Nc1ccc(Cl)c(Cl)c1 | 0.3 | > 150 | > 45 |  |  | 
S=C(Nc1ccccc1)OCc1cccc(Oc2ccccc2)c1 | > 100 |  | > 100 |  |  | 
S=C(Nc1ccccc1)OCC1COc2ccccc2O1 (stereo unspecified) | 52 | > 1.9 | > 100 |  |  | 
S=C(Nc1ccccc1)OCCCc1ccccc1 | 67 | > 1.5 | > 100 |  |  | 

Structure (SMILES) | EC50 [1] [µM] | selectivity ratio [2] | CC50 [3] [µM] | Activity [4] | EC50 [5] [µM] | EC50 [4] [µM]
O=[N+]([O-])c1ccc(NC(=S)OCCOc2ccc(Br)cc2)cc1 | > 100 |  | > 100 |  |  | 
O=[N+]([O-])c1ccc(NC(=S)OCCc2ccc(Cl)cc2)cc1 | 13 | > 7.7 | > 100 |  |  | 
S=C(Nc1ccccc1)OC1Cc2ccccc2C1 | 12 | > 8.3 | > 100 |  |  | 
O=[N+]([O-])c1ccc(OCCOC(=S)Nc2ccc(Cl)cc2)cc1 | > 72 | < 1 | 72 |  |  | 
S=C(Nc1ccccc1)OCc1c(Cl)cccc1Cl | > 100 |  | > 100 |  |  | 
S=C(Nc1ccccc1)OC/C=C/c1ccccc1 | 67 | > 1.5 | > 100 |  |  | 
CC(COC(=S)Nc1ccc(Cl)c([N+](=O)[O-])c1)c1ccccc1 (racemic) | 0.5 | 82 | 41 |  |  | 
COc1ccc(NC(=S)OCCOc2ccccc2)cc1 | 17 | 2.8 | 48 |  |  | 
S=C(Nc1ccccc1)OCC1(c2ccccc2)CC1 | 7 | 7.3 | 51 |  |  | 
S=C(Nc1ccccc1)OCCOc1ccccc1 | 5.8 | > 17 | > 100 |  |  | 
CC(OC(=S)Nc1ccc([N+](=O)[O-])cc1)c1ccc(Cl)cc1 (racemic) | 7 | > 14 | > 100 |  |  | 
O=[N+]([O-])c1ccc(NC(=S)OCCc2cccc(O)c2)cc1 | 3.7 | 6.5 | 24 |  |  | 
O=[N+]([O-])c1ccc(NC(=S)OCCc2ccccc2Cl)cc1 | 0.4 | > 250 | > 100 |  |  | 
S=C(Nc1ccccc1)OCCSc1ccccc1 | 38 | > 2.6 | > 100 |  |  | 
CC(COC(=S)Nc1ccc(Cl)c(Cl)c1)c1ccccc1 (racemic) | 0.3 | 147 | 44 |  |  | 
COc1ccc(NC(=S)OC(C)COc2ccccc2)cc1 (racemic) | > 100 |  | > 100 |  |  | 
CC(OC(=S)Nc1ccc(Cl)cc1)c1cccc2ccccc12 (racemic) | 82 | > 1.2 | > 100 |  |  | 
Cc1ccccc1CCOC(=S)Nc1ccc([N+](=O)[O-])cc1 | 0.7 | > 143 | > 100 |  |  | 
